Laboratory results taken from ChEMBL document CHEMBL4840317, “Saccharochelins A-H, Cytotoxic Amphiphilic Siderophores from the Rare Marine Actinomycete Saccharothrix sp. D09” (J Nat Prod, 2021).
Active and inactive are the calls of the source. No cut-off for these calls is given here.

Assays:
[1] = target: Angiotensin-converting enzyme 2 (Homo sapiens) (UniProt Q9BYF1); assay: Inhibition of ACE2 (unknown origin) upto 100 ug/ml incubated for 15 mins followed by substrate addition by fluorescence based analysis; settings: dose microg/ml <=100, time 15.0 min
Staphylococcus aureus = assay: Antibacterial activity against Staphylococcus aureus ATCC 29213 assessed as inhibition of bacterial growth incubated for 18 hrs by Kirby-Bauer disk diffusion method; format: functional
Bacillus subtilis = assay: Antibacterial activity against Bacillus subtilis ATCC 6633 assessed as inhibition of bacterial growth incubated for 18 hrs by Kirby-Bauer disk diffusion method; format: functional
Escherichia coli = assay: Antibacterial activity against Escherichia coli ATCC 35218 assessed as inhibition of bacterial growth incubated for 18 hrs by Kirby-Bauer disk diffusion method; format: functional
Pseudomonas aeruginosa = assay: Antibacterial activity against Pseudomonas aeruginosa ATCC 27853 assessed as inhibition of bacterial growth incubated for 18 hrs by Kirby-Bauer disk diffusion method; format: functional
MCF7 = assay: Cytotoxicity against human MCF7 cells assessed as reduction in cell viability by MTT assay; format: functional, cell-based
A549 = assay: Cytotoxicity against human A549 cells assessed as reduction in cell viability by MTT assay; format: functional, cell-based
HCT-116 = assay: Cytotoxicity against human HCT-116 cells assessed as reduction in cell viability by MTT assay; format: functional, cell-based
HepG2 = assay: Cytotoxicity against human HepG2 cells assessed as reduction in cell viability by MTT assay; format: functional, cell-based
[2] = Binding affinity to Fe3+ assessed as formation of Fe3+-compound complex at 5 to 640 uM in presence of FeCl3 incubated for 3 hrs by Chrome Azurol S assay; settings: dose 5-640 µM
[3] = Binding affinity to Fe3+ assessed as formation of Fe3+-compound complex coordinate ratio of 1:1 measured under neutral pH by UV-visible spectrophotometric titration analysis

Chain of Angiotensin-converting enzyme 2 (Homo sapiens) (Q9BYF1 18-805 limits assumed): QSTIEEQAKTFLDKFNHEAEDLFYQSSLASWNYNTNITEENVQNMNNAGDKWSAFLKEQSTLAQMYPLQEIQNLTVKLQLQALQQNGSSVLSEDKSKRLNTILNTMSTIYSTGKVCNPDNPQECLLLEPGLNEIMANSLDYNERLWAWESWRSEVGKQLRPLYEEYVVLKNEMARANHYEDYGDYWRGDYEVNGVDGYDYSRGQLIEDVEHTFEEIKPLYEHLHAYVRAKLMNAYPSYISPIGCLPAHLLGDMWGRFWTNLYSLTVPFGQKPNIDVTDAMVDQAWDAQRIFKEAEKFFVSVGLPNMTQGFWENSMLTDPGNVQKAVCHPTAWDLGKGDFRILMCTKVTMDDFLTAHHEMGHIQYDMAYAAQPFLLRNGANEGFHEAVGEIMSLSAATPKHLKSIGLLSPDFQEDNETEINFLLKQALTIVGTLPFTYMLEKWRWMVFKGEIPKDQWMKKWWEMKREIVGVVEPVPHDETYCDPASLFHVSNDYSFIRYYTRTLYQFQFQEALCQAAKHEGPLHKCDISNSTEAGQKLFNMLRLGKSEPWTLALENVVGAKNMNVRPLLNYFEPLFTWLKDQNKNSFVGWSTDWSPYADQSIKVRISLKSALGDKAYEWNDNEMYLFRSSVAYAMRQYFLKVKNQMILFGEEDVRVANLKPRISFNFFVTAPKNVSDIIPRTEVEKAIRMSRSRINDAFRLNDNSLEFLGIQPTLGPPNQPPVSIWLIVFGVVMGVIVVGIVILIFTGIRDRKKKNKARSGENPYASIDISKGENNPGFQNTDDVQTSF

For `CCCCCCCCCCCCCCC(=O)N[C@@H](CCCN(O)C=O)C(=O)N[C@@H](CO)C(=O)N(O)CCC[C@@H]1NC(=O)[C@H](CCCN(O)C=O)NC1=O`, the inhibition [1] was “inactive”, the MIC (Staphylococcus aureus) was greater than 100 µM and the MIC (Bacillus subtilis) was greater than 100 µM. It also gave an MIC (Escherichia coli) greater than 100 µM, an MIC (Pseudomonas aeruginosa) greater than 100 µM and an IC50 (MCF7) of 5.9 µM. For the same compound, the IC50 (A549) was 3.3 µM, the IC50 (HCT-116) was 4.8 µM and the IC50 (HepG2) was 4.3 µM.

For `COc1cccc2c1C(=O)c1c(O)c3c(c(O)c1C2=O)C[C@@](O)(C(=O)CO)C[C@@H]3O[C@H]1C[C@H](N)[C@H](O)[C@H](C)O1` [DOXORUBICIN], the IC50 (A549) was 0.9 µM, the IC50 (HCT-116) was 1.1 µM and the IC50 (HepG2) was 1.3 µM.

In the case of `CC(=O)N(O)CCCCCNC(=O)CCC(=O)N(O)CCCCCNC(=O)CCC(=O)N(O)CCCCCN`, the Activity [2] is reported as “Active”.

In the case of `CCCCCCCCCCCCC(=O)N[C@@H](CCCN(O)C=O)C(=O)N[C@@H](CO)C(=O)N(O)CCC[C@@H]1NC(=O)[C@H](CCCN(O)C=O)NC1=O`, the Activity [2] is reported as “Active”, the inhibition [1] is reported as “inactive” and the MIC (Staphylococcus aureus) is reported as greater than 100 µM. It also gave an MIC (Bacillus subtilis) greater than 100 µM, an MIC (Escherichia coli) greater than 100 µM and an MIC (Pseudomonas aeruginosa) greater than 100 µM. For the same compound, the IC50 (MCF7) was greater than 20 µM, the IC50 (A549) was 3.4 µM and the IC50 (HCT-116) was 10 µM. It also gave an IC50 (HepG2) of 10 µM.

For `CC(C)CCCCCCCCCC(=O)N[C@@H](CCCN(O)C=O)C(=O)N[C@@H](CO)C(=O)N(O)CCC[C@@H]1NC(=O)[C@H](CCCN(O)C=O)NC1=O`, the Activity [2] was “Active”, the Activity [3] was “Active” and the inhibition [1] was “inactive”. The MIC (Staphylococcus aureus) was greater than 100 µM, the MIC (Bacillus subtilis) was greater than 100 µM and the MIC (Escherichia coli) was greater than 100 µM. For the same compound, the MIC (Pseudomonas aeruginosa) was greater than 100 µM, the IC50 (MCF7) was greater than 20 µM and the IC50 (A549) was greater than 20 µM. For the same compound, the IC50 (HCT-116) was greater than 20 µM and the IC50 (HepG2) was 7.7 µM.

For `CCCCCCCCCCCC(=O)N[C@@H](CCCN(O)C=O)C(=O)N[C@@H](CO)C(=O)N(O)CCC[C@@H]1NC(=O)[C@H](CCCN(O)C=O)NC1=O`, the Activity [2] was “Active”, the inhibition [1] was “inactive” and the MIC (Staphylococcus aureus) was greater than 100 µM. It also gave an MIC (Bacillus subtilis) greater than 100 µM, an MIC (Escherichia coli) greater than 100 µM and an MIC (Pseudomonas aeruginosa) greater than 100 µM. It also gave an IC50 (MCF7) of 17 µM, an IC50 (A549) of 11 µM and an IC50 (HCT-116) of 11 µM. The IC50 (HepG2) was greater than 20 µM.

With `CC(C)CCCCCCCCCCCC(=O)N[C@@H](CCCN(O)C=O)C(=O)N[C@@H](CO)C(=O)N(O)CCC[C@@H]1NC(=O)[C@H](CCCN(O)C=O)NC1=O` the Activity [2] was “Active”, the inhibition [1] was “inactive” and the MIC (Staphylococcus aureus) was greater than 100 µM. The MIC (Bacillus subtilis) was greater than 100 µM, the MIC (Escherichia coli) was greater than 100 µM and the MIC (Pseudomonas aeruginosa) was greater than 100 µM. The IC50 (MCF7) was greater than 20 µM, the IC50 (A549) was 8.1 µM and the IC50 (HCT-116) was greater than 20 µM. It also gave an IC50 (HepG2) of 2.3 µM.

In the case of `CC(C)CCCCCCCCCCC(=O)N[C@@H](CCCN(O)C=O)C(=O)N[C@@H](CO)C(=O)N(O)CCC[C@@H]1NC(=O)[C@H](CCCN(O)C=O)NC1=O`, the Activity [2] is reported as “Active”, the inhibition [1] is reported as “inactive” and the MIC (Staphylococcus aureus) is reported as greater than 100 µM. For the same compound, the MIC (Bacillus subtilis) was greater than 100 µM, the MIC (Escherichia coli) was greater than 100 µM and the MIC (Pseudomonas aeruginosa) was greater than 100 µM. For the same compound, the IC50 (MCF7) was greater than 20 µM, the IC50 (A549) was 14 µM and the IC50 (HCT-116) was greater than 20 µM. For the same compound, the IC50 (HepG2) was greater than 20 µM.

For `CC(C)CCCCCCCCC(=O)N[C@@H](CCCN(O)C=O)C(=O)N[C@@H](CO)C(=O)N(O)CCC[C@@H]1NC(=O)[C@H](CCCN(O)C=O)NC1=O`, the inhibition [1] was “inactive”, the MIC (Staphylococcus aureus) was greater than 100 µM and the MIC (Bacillus subtilis) was greater than 100 µM. The MIC (Escherichia coli) was greater than 100 µM, the MIC (Pseudomonas aeruginosa) was greater than 100 µM and the IC50 (MCF7) was greater than 20 µM. The IC50 (A549) was 13 µM, the IC50 (HCT-116) was 9.7 µM and the IC50 (HepG2) was greater than 20 µM.

For `CCCCCCCCCCCCCC(=O)N[C@@H](CCCN(O)C=O)C(=O)N[C@@H](CO)C(=O)N(O)CCC[C@@H]1NC(=O)[C@H](CCCN(O)C=O)NC1=O`, the inhibition [1] was “inactive”, the MIC (Staphylococcus aureus) was greater than 100 µM and the MIC (Bacillus subtilis) was greater than 100 µM. It also gave an MIC (Escherichia coli) greater than 100 µM, an MIC (Pseudomonas aeruginosa) greater than 100 µM and an IC50 (MCF7) greater than 20 µM. It also gave an IC50 (A549) greater than 20 µM, an IC50 (HCT-116) greater than 20 µM and an IC50 (HepG2) greater than 20 µM.
